Source: US12187746B2, “C26-linked rapamycin analogs as mTOR inhibitors” (Revolution Medicines, Inc., priority 2018, dated 2025)

Tests used:
[1] = test system: P-4E-BP1 (T37/46); assay: Cell based AlphaLISA assay, inhibition of P-4E-BP1 (T37/46) in MDA-MB-468 cells; conditions: Homo sapiens, 4 h, 0.017-1,000 nM, two to four hours at 37° C., AlphaLisa SureFire Ultra, read-out: pIC50 for Inhibition of mTORC1 and mTORC2 Substrate Phosphorylation, p-4E-BP1-(T37/46) (converted)
Experimental: (§1) Cell Based AlphaLISA Assays For Determining IC50 For Inhibition of P-Akt (S473), P-4E-BP1 (T37/46), and P-P70S6K (T389) in MDA-MB-468 Cells
(§2) mTOR Kinase Cellular Assay
(§3) To measure functional activity of mTORC1 and mTORC2 in cells the phosphorylation of 4EBP1 (Thr37/46) and P70S6K (Thr389), and AKT1/2/3 (Ser473) was monitored using AlphaLisa SureFire Ultra Kits (Perkin Elmer). […] Incubations are terminated by removal of the assay buffer and addition of lysis buffer provided with the assay kit. Samples are processed according to the manufacturer's instructions. The Alpha signal from the respective phosphoproteins is measured in duplicate using a microplate reader (Envision, Perkin-Elmer or Spectramax M5, Molecular Devices). Inhibitor concentration response curves are analyzed using normalized IC50 regression curve fitting with control based normalization.

[2] = test system: P-Akt (S473); assay: Cell based AlphaLISA assay, inhibition of P-Akt (S473) in MDA-MB-468 cells; conditions: Homo sapiens, 4 h, 0.017-1,000 nM, two to four hours at 37° C., AlphaLisa SureFire Ultra, read-out: pIC50 for Inhibition of mTORC1 and mTORC2 Substrate Phosphorylation, p-AKT1/2/3-(S473) (converted)
Experimental: as §1, §2, §3

[3] = test system: P-P70S6K (T389); assay: Cell based AlphaLISA assay, inhibition of P-P70S6K (T389) in MDA-MB-468 cells; conditions: Homo sapiens, 4 h, 0.017-1,000 nM, two to four hours at 37° C., AlphaLisa SureFire Ultra, read-out: pIC50 for Inhibition of mTORC1 and mTORC2 Substrate Phosphorylation, p-P70S6K-(T389) (converted)
Experimental: as §1, §2, §3

SMILES | IC50 [1] | IC50 [2] | IC50 [3]
CO[C@H]1C[C@@H]2CC[C@@H](C)[C@@](O)(O2)C(=O)C(=O)N2CCCC[C@H]2C(=O)O[C@H]([C@H](C)C[C@@H]2CC[C@@H](O)[C@H](OC)C2)C[C@@H](O)[C@H](C)/C=C(\C)[C@@H](O)[C@@H](OC)C(=NOCC(=O)NCCOCCC(=O)N2CCc3nc(N4CCN(c5ncc(C(=O)N6CCc7cc(Cn8nc(-c9ccc%10oc(N)nc%10c9)c9c(N)ncnc98)ccc7C6)cn5)CC4)ncc3C2)[C@H](C)C[C@H](C)/C=C/C=C/C=C/1C [Example 26] | 3.16 to 31.6 nM | > 1000 nM | 1 to 10 nM
CO[C@H]1C[C@@H]2CC[C@@H](C)[C@@](O)(O2)C(=O)C(=O)N2CCCC[C@H]2C(=O)O[C@H]([C@H](C)C[C@@H]2CC[C@@H](O)[C@H](OC)C2)C[C@@H](O)[C@H](C)/C=C(\C)[C@@H](O)[C@@H](OC)C(=NOCC(=O)NCCOCCOCCOCCOCCOCCOCCC(=O)N2CCC(N3CCC(C(=O)N4CCc5cc(Cn6nc(-c7ccc8oc(N)nc8c7)c7c(N)ncnc76)ccc5C4)CC3)CC2)[C@H](C)C[C@H](C)/C=C/C=C/C=C/1C [Example 28] | 3.16 to 31.6 nM | 31.6 to 1000 nM | 1 to 10 nM
CO[C@H]1C[C@@H]2CC[C@@H](C)[C@@](O)(O2)C(=O)C(=O)N2CCCC[C@H]2C(=O)O[C@H]([C@H](C)C[C@@H]2CC[C@@H](O)[C@H](OC)C2)C[C@@H](O)[C@H](C)/C=C(\C)[C@@H](O)[C@@H](OC)C(=NOCC(=O)NCCOCCOCCOCCOCCOCCOCCOCCOCCC(=O)NCCCCn2nc(-c3ccc4oc(N)nc4c3)c3c(N)ncnc32)[C@H](C)C[C@H](C)/C=C/C=C/C=C/1C [Example 1] | 3.16 to 31.6 nM | 31.6 to 1000 nM | 1 to 10 nM
CO[C@H]1C[C@@H]2CC[C@@H](C)[C@@](O)(O2)C(=O)C(=O)N2CCCC[C@H]2C(=O)O[C@H]([C@H](C)C[C@@H]2CC[C@@H](O)[C@H](OC)C2)C[C@@H](O)[C@H](C)/C=C(\C)[C@@H](O)[C@@H](OC)C(=NOCC(=O)NCc2cnc(N3CCN(C(=O)CCOCCN4CCN(c5ncc(C(=O)NCCOCCC(=O)N6CCc7cc(Cn8nc(-c9ccc%10oc(N)nc%10c9)c9c(N)ncnc98)ccc7C6)cn5)CC4)CC3)nc2)[C@H](C)C[C@H](C)/C=C/C=C/C=C/1C [Example 39] | 3.16 to 31.6 nM | > 1000 nM | 1 to 10 nM
CO[C@H]1C[C@@H]2CC[C@@H](C)[C@@](O)(O2)C(=O)C(=O)N2CCCC[C@H]2C(=O)O[C@H]([C@H](C)C[C@@H]2CC[C@@H](O)[C@H](OC)C2)C[C@@H](O)[C@H](C)/C=C(\C)[C@@H](O)[C@@H](OC)C(=NOCC(=O)N2CCc3nc(N4CCN(C(=O)CCOCCOCCOCCOCCC(=O)NCCCCn5nc(-c6ccc7oc(N)nc7c6)c6c(N)ncnc65)CC4)ncc3C2)[C@H](C)C[C@H](C)/C=C/C=C/C=C/1C [Example 23] | 3.16 to 31.6 nM | 31.6 to 1000 nM | 1 to 10 nM
COc1ccc(-c2ccc3ncc4c(c3c2)n(-c2ccc(N3CCN(c5ncc(CNC(=O)CCOCCOCCOCCOCCOCCOCCNC(=O)CON=C6[C@H](C)C[C@H](C)/C=C/C=C/C=C(\C)[C@@H](OC)C[C@@H]7CC[C@@H](C)[C@@](O)(O7)C(=O)C(=O)N7CCCC[C@H]7C(=O)O[C@H]([C@H](C)C[C@@H]7CC[C@@H](O)[C@H](OC)C7)C[C@@H](O)[C@H](C)/C=C(\C)[C@@H](O)[C@H]6OC)cn5)CC3)c(C(F)(F)F)c2)c(=O)n4C)cn1 [Example 14] | 3.16 to 31.6 nM | 31.6 to 1000 nM | < 1 nM
CO[C@H]1C[C@@H]2CC[C@@H](C)[C@@](O)(O2)C(=O)C(=O)N2CCCC[C@H]2C(=O)O[C@H]([C@H](C)C[C@@H]2CC[C@@H](O)[C@H](OC)C2)C[C@@H](O)[C@H](C)/C=C(\C)[C@@H](O)[C@@H](OC)C(=NOCC(=O)NCc2cnc(N3CCN(c4ncc(C(=O)NCCOCCC(=O)N5CCc6cc(Cn7nc(-c8ccc9oc(N)nc9c8)c8c(N)ncnc87)ccc6C5)c(N)n4)CC3)nc2)[C@H](C)C[C@H](C)/C=C/C=C/C=C/1C [Example 50] | > 1000 nM | > 1000 nM | 10 to 1000 nM
CO[C@H]1C[C@@H]2CC[C@@H](C)[C@@](O)(O2)C(=O)C(=O)N2CCCC[C@H]2C(=O)O[C@H]([C@H](C)C[C@@H]2CC[C@@H](O)[C@H](OC)C2)C[C@@H](O)[C@H](C)/C=C(\C)[C@@H](O)[C@@H](OC)C(=NOCC(=O)N2CCc3nc(N4CCN(c5ncc(C(=O)NCCOCCOCCC(=O)NCCCCn6nc(-c7ccc8oc(N)nc8c7)c7c(N)ncnc76)cn5)CC4)ncc3C2)[C@H](C)C[C@H](C)/C=C/C=C/C=C/1C [Example 16] | 3.16 to 31.6 nM | > 1000 nM | 1 to 10 nM
CO[C@H]1C[C@@H]2CC[C@@H](C)[C@@](O)(O2)C(=O)C(=O)N2CCCC[C@H]2C(=O)O[C@H]([C@H](C)C[C@@H]2CC[C@@H](O)[C@H](OC)C2)C[C@@H](O)[C@H](C)/C=C(\C)[C@@H](O)[C@@H](OC)C(=NOCC(=O)NCc2cnc(N3CCN(C(=O)CCOCCN4CCN(CCOCCC(=O)N5CCc6cc(Cn7nc(-c8ccc9oc(N)nc9c8)c8c(N)ncnc87)ccc6C5)CC4)CC3)nc2)[C@H](C)C[C@H](C)/C=C/C=C/C=C/1C [Example 40] | 3.16 to 31.6 nM | > 1000 nM | 1 to 10 nM
CO[C@H]1C[C@@H]2CC[C@@H](C)[C@@](O)(O2)C(=O)C(=O)N2CCCC[C@H]2C(=O)O[C@H]([C@H](C)C[C@@H]2CC[C@@H](O)[C@H](OC)C2)C[C@@H](O)[C@H](C)/C=C(\C)[C@@H](O)[C@@H](OC)C(=NOCC(=O)NCCOCCOCCOCCOCCOCCOCCC(=O)N2CCc3cc(Cn4nc(-c5ccc6oc(N)nc6c5)c5c(N)ncnc54)ccc3C2)[C@H](C)C[C@H](C)/C=C/C=C/C=C/1C [Example 5] | < 3.16 nM | 31.6 to 1000 nM | < 1 nM
CO[C@H]1C[C@@H]2CC[C@@H](C)[C@@](O)(O2)C(=O)C(=O)N2CCCC[C@H]2C(=O)O[C@H]([C@H](C)C[C@@H]2CC[C@@H](O)[C@H](OC)C2)C[C@@H](OC)[C@H](C)/C=C(\C)[C@@H](O)[C@@H](OC)C(=NOCC(=O)NCCOCCOCCOCCOCCOCCOCCOCCOCCC(=O)N2CCc3cc(Cn4nc(-c5cnc6[nH]ccc6c5)c5c(N)ncnc54)ccc3C2)[C@H](C)C[C@H](C)/C=C/C=C/C=C/1C [Example 11] | 3.16 to 31.6 nM | > 1000 nM | 1 to 10 nM
CO[C@H]1C[C@@H]2CC[C@@H](C)[C@@](O)(O2)C(=O)C(=O)N2CCCC[C@H]2C(=O)O[C@H]([C@H](C)C[C@@H]2CC[C@@H](O)[C@H](OC)C2)C[C@@H](O)[C@H](C)/C=C(\C)[C@@H](O)[C@@H](OC)C(=NOCC(=O)NCCOCCOCCOCCOCCC(=O)N2CCN(c3ncc(C(=O)NCCCCn4nc(-c5ccc6oc(N)nc6c5)c5c(N)ncnc54)cn3)CC2)[C@H](C)C[C@H](C)/C=C/C=C/C=C/1C [Example 27] | 3.16 to 31.6 nM | 31.6 to 1000 nM | 1 to 10 nM
CO[C@H]1C[C@@H]2CC[C@@H](C)[C@@](O)(O2)C(=O)C(=O)N2CCCC[C@H]2C(=O)O[C@H]([C@H](C)C[C@@H]2CC[C@@H](O)[C@H](OC)C2)CC[C@H](C)/C=C(\C)[C@@H](O)[C@@H](OC)C(=NOCC(=O)NCCOCCOCCOCCOCCOCCOCCOCCOCCC(=O)N2CCc3cc(Cn4nc(-c5ccc6oc(N)nc6c5)c5c(N)ncnc54)ccc3C2)[C@H](C)C[C@H](C)/C=C/C=C/C=C/1C [Example 67] | < 3.16 nM | 31.6 to 1000 nM | < 1 nM
CO[C@H]1C[C@@H]2CC[C@@H](C)[C@@](O)(O2)C(=O)C(=O)N2CCCC[C@H]2C(=O)O[C@H]([C@H](C)C[C@@H]2CC[C@@H](O)[C@H](OC)C2)C[C@@H](O)[C@H](C)/C=C(\C)[C@@H](O)[C@@H](OC)C(=NOCC(=O)NCc2cnc(N3CCN(CCOCCN4CCN(c5ncc(C(=O)N6CCc7cc(Cn8nc(-c9ccc%10oc(N)nc%10c9)c9c(N)ncnc98)ccc7C6)cn5)CC4)CC3)nc2)[C@H](C)C[C@H](C)/C=C/C=C/C=C/1C [Example 59] | 3.16 to 31.6 nM | > 1000 nM | < 1 nM
CO[C@H]1C[C@@H]2CC[C@@H](C)[C@@](O)(O2)C(=O)C(=O)N2CCCC[C@H]2C(=O)O[C@H]([C@H](C)C[C@@H]2CC[C@@H](O)[C@H](OC)C2)C[C@@H](O)[C@H](C)/C=C(\C)[C@@H](O)[C@@H](OC)C(=NOc2cccc(C(=O)NCc3cnc(N4CCN(C(=O)CCOCCN5CCN(c6ncc(C(=O)N7CCc8cc(Cn9nc(-c%10ccc%11oc(N)nc%11c%10)c%10c(N)ncnc%109)ccc8C7)cn6)CC5)CC4)nc3)c2)[C@H](C)C[C@H](C)/C=C/C=C/C=C/1C [Example 35] | > 1000 nM | > 1000 nM | 10 to 1000 nM
